Test results as given in patent US10633375B2, “Oxopicolinamide derivative, preparation method therefor and pharmaceutical use thereof” (Jiangsu Hengrui Medicine Co., Ltd., priority 2016, dated 2020).

biological target: Coagulation Factor XIa protease (Homo sapiens (Human), UniProt P03951); test: Inhibition of Factor XIa detected by absorption photometry; format: biochemical; settings: absorbance at 405 nm, 10 minutes at 37° C.
Experimental: Test Example 1: Biological Activity of the Compounds of the Present Invention on
The Inhibition of Factor XIa Detected by Absorption Photometry
1. Experimental Materials
Enzyme: Coagulation Factor XIa protease (Abcam, Art. No ab62411)
Substrate: Coagulation Factor XIa specific substrate (HYPHEN1310 med, Art. No. Biophen cs-21(66))
2. Experimental Procedure
20 mM of test compound dissolved in 100% DMSO was diluted to 200, 20, 2, 0.2, 0.02, 0.002 μM with 100% DMSO; 1 μl of the compound was added to each well in a 384-well plate, blank and control wells were replaced with DMSO. The plate was centrifuged to remove the compound to the bottom. 10 μl (2.5 μg/ml) of FXIa enzyme solution was added to each well, and 10 μl of buffer was added to the blank well. The plate was centrifuged to remove the enzyme solution to the bottom.
Finally, 10 μl of 2 mM substrate were added to each well, and the plate was centrifuged to remove the substrate solution to the bottom.
The plate was incubated for 10 minutes at 37° C.; and then the absorbance was measured at 405 nm.

Chain of Coagulation Factor XIa protease (P03951 388-625): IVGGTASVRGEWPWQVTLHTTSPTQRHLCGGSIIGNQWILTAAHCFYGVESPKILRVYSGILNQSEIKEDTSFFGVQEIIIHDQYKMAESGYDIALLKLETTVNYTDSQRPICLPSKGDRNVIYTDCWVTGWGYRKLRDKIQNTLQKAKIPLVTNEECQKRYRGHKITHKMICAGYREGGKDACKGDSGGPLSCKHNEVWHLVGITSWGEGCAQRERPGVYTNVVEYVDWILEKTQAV
Chain of Coagulation Factor XIa protease (P03951 19-387 partner): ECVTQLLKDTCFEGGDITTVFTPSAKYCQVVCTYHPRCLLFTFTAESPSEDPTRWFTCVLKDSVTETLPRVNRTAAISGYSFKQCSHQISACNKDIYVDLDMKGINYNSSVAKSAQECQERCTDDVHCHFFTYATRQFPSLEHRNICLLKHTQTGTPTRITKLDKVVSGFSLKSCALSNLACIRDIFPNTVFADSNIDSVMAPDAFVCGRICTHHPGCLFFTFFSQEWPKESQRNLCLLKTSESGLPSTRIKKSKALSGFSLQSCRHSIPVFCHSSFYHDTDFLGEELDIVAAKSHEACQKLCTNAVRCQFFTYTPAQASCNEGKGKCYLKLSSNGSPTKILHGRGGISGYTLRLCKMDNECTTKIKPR

Row | Structure (SMILES) | IC50
1 | COc1cn(C(Cc2c(Cl)cccc2Cl)C(=O)Nc2ccc(C(=O)O)cc2)c(=O)cc1-c1cc(Cl)ccc1C(C)=O (centres unmarked) [Example 76, 4-(2-(4-(2-acetyl-5-chlorophenyl)-5-methoxy-2-oxopyridin-1(2H)-yl)-3-(2,6-dichlorophenyl)propanamido)benzoic acid] | 0.1 µM
2 | COc1cn([C@H](Cc2ccn(C3CC3)n2)C(=O)Nc2ccc(C(=O)O)cc2)c(=O)cc1-c1cc(Cl)ccc1C(C)=O [Example 95, (R)-4-(2-(4-(2-acetyl-5-chlorophenyl)-5-methoxy-2-oxopyridin-(2H)-yl)-3-(1-cyclopropyl-1H-pyrazol-3-yl)propanamido)benzoic acid] | 7.51 µM
3 | COc1cn([C@H](Cc2ccn(C)n2)C(=O)Nc2ccc(C(=O)O)cc2)c(=O)cc1-c1cc(Cl)ccc1C(C)=O [Example 102, (R)-4-(2-(4-(2-acetyl-5-chlorophenyl)-5-methoxy-2-oxopyridin-1(2H)-yl)-3-(1-methyl-1H-pyrazol-3-yl)propanamido)benzoic acid] | 8.21 µM
4 | COc1cn(C(CCOC(C)(C)C)C(=O)Nc2ccc(C(=O)O)cc2)c(=O)cc1-c1cc(Cl)ccc1C(C)=O (centres unmarked) [Example 110, 4-(2-(4-(2-acetyl-5-chlorophenyl)-5-methoxy-2-oxopyridin-1(2H)-yl)-4-(tert-butoxy)butanamido)benzoic acid] | 0.053 µM
5 | CCC(=O)c1ccc(Cl)cc1-c1cc(=O)n(C(CCOC(C)(C)C)C(=O)Nc2ccc3nccnc3c2)cc1OC (centres unmarked) [Example 113, 4-(tert-butoxy)-2-(4-(5-chloro-2-propionylphenyl)-5-methoxy-2-oxopyridin-(2H)-yl)-N-(quinoxalin-6-yl)butanamide] | 0.033 µM
6 | CCC(=O)c1ccc(Cl)cc1-c1cc(=O)n([C@H](CCOC(C)(C)C)C(=O)Nc2ccc3nccnc3c2)cc1OC [Example 115, (R)-4-(tert-butoxy)-2-(4-(5-chloro-2-propionylphenyl)-5-methoxy-2-oxopyridin-1(2H)-yl)-N-(quinoxalin-6-yl)butanamide] | > 10 µM
7 | CCC(=O)c1ccc(Cl)cc1-c1cc(=O)n(C(CCOC(C)(C)C)C(=O)Nc2ccc3[nH]c(C(=O)O)cc3c2)cc1OC (centres unmarked) [Example 119, 5-(4-(tert-butoxy)-2-(4-(5-chloro-2-propionylphenyl)-5-methoxy-2-oxopyridin-1(2H)-yl)butanamido)-1H-indole-2-carboxylic acid] | 0.045 µM
8 | COc1cn(C(CCOC(C)(C)C)C(=O)Nc2ccc(C(=O)O)cc2)c(=O)cc1-c1c(C(C)=O)ccc(Cl)c1F (centres unmarked) [Example 120, 44-(2-(4-(6-acetyl-3-chloro-2-fluorophenyl)-5-methoxy-2-oxopyridin-1(2H)-yl)-4-(tert-butoxy)butanamido)benzoic acid] | 0.049 µM
9 | CCC(=O)c1ccc(Cl)cc1-c1cc(=O)n(C(CCOC(C)(C)C)C(=O)Nc2ccc3ncncc3c2)cc1OC (centres unmarked) [Example 121, 4-(tert-butoxy)-2-(4-(5-chloro-2-propionylphenyl)-5-methoxy-2-oxopyridin-1(2H)-yl)-N-(quinazolin-6-yl)butanamide] | 0.067 µM
10 | COc1cn([C@@H](CCOC(C)(C)C)C(=O)Nc2ccc(C(N)=O)cc2)c(=O)cc1-c1cc(Cl)ccc1C(C)=O [Example 122, (S)-4-(2-(4-(2-acetyl-5-chlorophenyl)-5-methoxy-2-oxopyridin-1(2H)-yl)-4-(tert-butoxy)butanamido)benzamide] | 0.1 µM
11 | CNC(=O)c1ccc(NC(=O)[C@H](CCOC(C)(C)C)n2cc(OC)c(-c3cc(Cl)ccc3C(C)=O)cc2=O)cc1 [Example 123, (S)-4-(2-(4-(2-acetyl-5-chlorophenyl)-5-methoxy-2-oxopyridin-1(2H)-yl)-4-(tert-butoxy)butanamido)-N-methylbenzamide] | 0.1 µM
12 | CCC(=O)c1ccc(Cl)cc1-c1cc(=O)n(C(CCOC(C)(C)C)C(=O)Nc2ccc3nc(C)c(C)nc3c2)cc1OC (centres unmarked) [Example 124, 4-(tert-butoxy)-2-(4-(5-chloro-2-propionylphenyl)-5-methoxy-2-oxopyridin-(2H)-yl)-N-(2,3-dimethylquinoxalin-6-yl)butanamide] | 0.1 µM
13 | CCC(=O)c1ccc(Cl)cc1-c1cc(=O)n(C(CCOC(C)(C)C)C(=O)Nc2ccc3nn(C)cc3c2)cc1OC (centres unmarked) [Example 141] | 0.066 µM
14 | COCCC(C(=O)Nc1ccc(C(=O)O)cc1)n1cc(OC)c(-c2cc(Cl)ccc2C(C)=O)cc1=O (centres unmarked) [Example 147, 4-(2-(4-(2-acetyl-5-chlorophenyl)-5-methoxy-2-oxopyridin-1(2H)-yl)-4-methoxybutanamido)benzoic acid] | 0.056 µM

Further lines, results first:

Row | IC50 | Structure (SMILES)
15 | 0.072 µM | COc1ccccc1CC(C(=O)Nc1ccc(C(=O)O)cc1)n1cc(OC)c(-c2cc(Cl)ccc2C(C)=O)cc1=O (centres unmarked) [Example 78, 4-(2-(4-(2-acetyl-5-chlorophenyl)-5-methoxy-2-oxopyridin-1(2H)-yl)-3-(2-methoxyphenyl)propanamido)benzoic acid]
16 | 0.045 µM | COc1cn(C(Cc2ccccn2)C(=O)Nc2ccc(C(=O)O)cc2)c(=O)cc1-c1cc(Cl)ccc1C(C)=O (centres unmarked) [Example 79, 4-(2-(4-(2-acetyl-5-chlorophenyl)-5-methoxy-2-oxopyridin-1(2H)-yl)-3-(pyridin-2-yl)propanamido)benzoic acid]
17 | 0.068 µM | COc1cn(C(Cc2cccnc2)C(=O)Nc2ccc(C(=O)O)cc2)c(=O)cc1-c1cc(Cl)ccc1C(C)=O (centres unmarked) [Example 82, 4-(2-(4-(2-acetyl-5-chlorophenyl)-5-methoxy-2-oxopyridin-1(2H)-yl)-3-(pyridin-3-yl)propanamido)benzoic acid]
18 | > 10 µM | COc1cn([C@H](Cc2cccnc2)C(=O)Nc2ccc(C(=O)O)cc2)c(=O)cc1-c1cc(Cl)ccc1C(C)=O [Example 83, (R)-4-(2-(4-(2-acetyl-5-chlorophenyl)-5-methoxy-2-oxopyridin-1 (2H)-yl)-3-(pyridin-3-yl)propanamido)benzoic acid]
19 | 0.099 µM | COc1cn(C(Cc2ccncc2)C(=O)Nc2ccc(C(=O)O)cc2)c(=O)cc1-c1cc(Cl)ccc1C(C)=O (centres unmarked) [Example 86, 4-(2-(4-(2-acetyl-5-chlorophenyl)-5-methoxy-2-oxopyridin-1(2H)-yl)-3-(pyridin-4-yl)propanamido)benzoic acid]
20 | 0.073 µM | COc1cn(C(Cc2ccccc2C#N)C(=O)Nc2ccc(C(=O)O)cc2)c(=O)cc1-c1cc(Cl)ccc1C(C)=O (centres unmarked) [Example 87, 4-(2-(4-(2-acetyl-5-chlorophenyl)-5-methoxy-2-oxopyridin-1(2H)-yl)-3-(2-cyanophenyl)propanamido)benzoic acid]
21 | 0.074 µM | COc1cn(C(Cc2cccc(C#N)c2)C(=O)Nc2ccc(C(=O)O)cc2)c(=O)cc1-c1cc(Cl)ccc1C(C)=O (centres unmarked) [Example 88, 4-(2-(4-(2-acetyl-5-chlorophenyl)-5-methoxy-2-oxopyridin-1(2H)-yl)-3-(3-cyanophenyl)propanamido)benzoic acid]
22 | 0.1 µM | COc1cn(C(Cc2ccc(C#N)cc2)C(=O)Nc2ccc(C(=O)O)cc2)c(=O)cc1-c1cc(Cl)ccc1C(C)=O (centres unmarked) [Example 90, 4-(2-(4-(2-acetyl-5-chlorophenyl)-5-methoxy-2-oxopyridin-1(2H)-yl)-3-(4-cyanophenyl)propanamido)benzoic acid]
23 | 0.023 µM | COc1cn([C@@H](Cc2ccn(C)n2)C(=O)Nc2ccc(C(=O)O)cc2)c(=O)cc1-c1cc(Cl)ccc1C(C)=O [Example 101, (S)-4-(2-(4-(2-acetyl-5-chlorophenyl)-5-methoxy-2-oxopyridin-1(2H)-yl)-3-(1-methyl-1H-pyrazol-3-yl)propanamido)benzoic acid]
24 | 0.07 µM | COc1cn(C(Cc2cnn(C)c2)C(=O)Nc2ccc(C(=O)O)cc2)c(=O)cc1-c1cc(Cl)ccc1C(C)=O (centres unmarked) [Example 103, 4-(2-(4-(2-acetyl-5-chlorophenyl)-5-methoxy-2-oxopyridin-1(2H)-yl)-3-(1-methyl-1H-pyrazol-4-yl)propanamido)benzoic acid]
25 | 0.037 µM | COCCC(C(=O)Nc1ccc(C(=O)O)cc1)n1cc(OC)c(-c2c(C(C)=O)ccc(Cl)c2F)cc1=O (centres unmarked) [Example 146, 4-(2-(4-(6-acetyl-3-chloro-2-fluorophenyl)-5-methoxy-2-oxopyridin-1(21)-yl)-4-methoxvbutanamido)benzoic acid]
26 | 0.081 µM | CCCCC(C(=O)Nc1ccc(C(=O)O)cc1)n1cc(OC)c(-c2cc(Cl)ccc2C(C)=O)cc1=O (centres unmarked) [Example 155, 4-(2-(4-(2-acetyl-5-chlorophenyl)-5-methoxy-2-oxopyridin-1(2H)-yl)hexanamido)benzoic acid]
27 | 0.046 µM | COc1cn(C(CC2(C)CC2)C(=O)Nc2ccc(C(=O)O)cc2)c(=O)cc1-c1cc(Cl)ccc1C(C)=O (centres unmarked) [Example 158, 4-(2-(4-(2-acetyl-5-chlorophenyl)-5-methoxy-2-oxopyridin-1(2H)-yl)-3-(1-methylcyclopropyl)propanamido)benzoic acid]
28 | 0.033 µM | COc1cn(C(CC2CCC2)C(=O)Nc2ccc(C(=O)O)cc2)c(=O)cc1-c1c(C(C)=O)ccc(Cl)c1F (centres unmarked) [Example 159, 4-(2-(4-(6-acetyl-3-chloro-2-fluorophenyl)-5-methoxy-2-oxopyridin-1(2H)-yl)-3-cyclobutylpropanamido)benzoic acid]
29 | 13.1 µM | COc1cn([C@@H](CC2CCC2)C(=O)Nc2ccc(C(=O)O)cc2)c(=O)cc1-c1c(C(C)=O)ccc(Cl)c1F [Example 161, (S)-4-(2-(4-(6-acetyl-3-chloro-2-fluorophenyl)-5-methoxy-2-oxopyridin-1(2H)-yl)-3-cyclobutylpropanamido)benzoic acid]
